Source: patent publication US20130225609A1, “COMBINATIONS OF MEDICAMENTS, CONTAINING PDE4-INHIBITORS AND EP4-RECEPTOR-ANTAGONISTS” (BOEHRINGER INGELHEIM INTERNATIONAL GMBH, priority 2010, published 2013)

How the values were obtained:
[1] = Experiment 4: EP2-preferential antagonist AH6809 and roflumilast-mediated side effects in rats; assay type: in vivo, male Wistar rats; settings: four days
Experimental: Six male Wistar rats were given a daily dosage of 10 mg/kg AH-6809 (preferential EP2 antagonist) at 1300 hours. Six male Wistar rats were given a daily dosage of 10 mg/kg Roflumilast (PDE4 inhibitor) at 1300 hours.

[2] = Experiment 2: Lumiracoxib (COX-2 selective) / SC-560 (COX-1 selective) and roflumilast-mediated side effects in rats; assay type: in vivo, male Wistar rats; settings: four days
From the text: Six male Wistar rats were given a daily dosage of 0.5%
For pharmacokinetic analysis (determining plasma levels of the substances) one rat from each group was used on day 4; these rats were no longer available for the investigation of other parameters.

[3] = Experiment 3: EP4 antagonist MF498 and roflumilast-mediated side effects in rats; assay type: in vivo, male Wistar rats; settings: four days
Experimental: Six male Wistar rats were given a daily dosage of 0.5% Natrosol (Placebo) at 1300 hours.
Six male Wistar rats were given a daily dosage of 20 mg/kg MF-498 (EP4 antagonist) in each case at 1300 hours.
Six male Wistar rats were given a daily dosage of 10 mg/kg Roflumilast (PDE4 inhibitor) at 1300 hours.

[4] = Experiment 1: diclofenac and roflumilast-mediated side effects in rats
Experimental: Six male Wistar rats in each group were treated for four days with the following substances (all substances are given p.o.=orally):
Group 1 (“Control Group”):
Six male Wistar rats were given a daily dose of 0.5% Natrosol (placebo) at the times 0800, 1300 and 1700 hours.
Group 2 (“Diclofenac Group”):
Six male Wistar rats were given a daily dose of 1 mg/kg of diclofenac (NSAID) at the times 0800 and 1700 hours and 0.5% Natrosol (placebo) at 1300 hours.
Group 3 (“Roflumilast Group”):
Six male Wistar rats were given a daily dose of 0.5% Natrosol (placebo) at 0800 and 1700 hours and 10 mg/kg roflumilast (PDE4 inhibitor) at 1300 hours.
Group 4 (“Roflumilast+Diclofenac Group”):
Six male Wistar rats were given a daily dose of 1 mg/kg diclofenac (NSAID) at the times 0800 and 1700 hours and 10 mg/kg roflumilast (PDE4 inhibitor) at 1300 hours.
For pharmacokinetic analysis (determining the plasma levels of the substances) on day 4 one rat from each group was used; these rats were no longer available for other parameters under investigation.
During the experiment the body weights of the animals were determined and the differences in the body weights of the rats from the different groups towards the end of the experiment were shown as a percentage change from the time of the first administration (=day 1, 0800 hours (=time t0)). The average±standard deviation of the body weights at time t0 was 355±17 g.
At the end of the experiment (day 5, 95 hours after t0 (=the time of the first administration on day 1, 0800)) the proportion of neutrophils (in % of white blood cells, FIG. 2) were determined from the blood of 4 or 5 of the rats from the individual groups. In addition, the weights of the animals' spleens were measured and the mesenteries were dissected for histopathological investigation for vasculitis (multifocal perivascular mononuclear/polymorphonuclear infiltration).

[5] = 10 mg/kg p.o. + 10 mg/kg roflumilast p.o. at 1300 hours
[6] = 2 mg/kg p.o. at 0800 and 1700 hours + 10 mg/kg roflumilast p.o. at 1300 hours
[7] = 20 mg/kg p.o. + 10 mg/kg roflumilast p.o. at 1300 hours
[8] = Roflumilast group: 10 mg/kg roflumilast p.o. daily
[9] = 1 mg/kg p.o. at 0800 and 1700 hours + 10 mg/kg roflumilast p.o. at 1300 hours, four days

CC(C)Oc1ccc2c(=O)c3cc(C(=O)O)ccc3oc2c1 [AH6809, 6-isopropoxy-9-oxoxanthene-2-carboxylic acid]
effect of co-administration on roflumilast-mediated loss of body weight (FIG. 13) [1, 5]: no indications that the EP2 preferential receptor antagonist AH-809 had any influence
effect of co-administration on roflumilast-mediated loss of spleen weight (FIG. 14) [1, 5]: no indications that the EP2 preferential receptor antagonist AH-809 had any influence
effect of co-administration on roflumilast-mediated mesenteric vasculitis (FIG. 16) [1, 5]: no indications that the EP2 preferential receptor antagonist AH-809 had any influence
effect of co-administration on roflumilast-mediated neutrophilia (FIG. 15) [1, 5]: no indications that the EP2 preferential receptor antagonist AH-809 had any influence
effect of EP2 blockage on the parameters measured (roflumilast-mediated side effects, overall) ([1]; 10 mg/kg p.o. + 10 mg/kg roflumilast p.o.): shows no effect on the parameters measured
parameters measured after administration on its own (body weight, spleen weight, neutrophils, vasculitis) ([1]; 10 mg/kg p.o. daily, without roflumilast): very similar to the control group

Cc1ccc(Nc2c(F)cccc2Cl)c(CC(=O)O)c1 [Lumiracoxib]
effect of co-administration on roflumilast-mediated loss of body weight (FIG. 5) [2, 6]: substantially reduced or prevented
effect of co-administration on roflumilast-mediated loss of spleen weight (FIG. 6) [2, 6]: substantially reduced or prevented
effect of co-administration on roflumilast-mediated mesenteric vasculitis (FIG. 8) [2, 6]: substantially reduced or prevented
effect of co-administration on roflumilast-mediated neutrophilia (FIG. 7) [2, 6]: substantially reduced or prevented
parameters measured after administration on its own (body weight, spleen weight, neutrophils, vasculitis) ([2]; 2 mg/kg p.o. at 0800 and 1700 hours, without roflumilast): very similar to the control groups

CCOc1c2c(c(OCC)c3ncccc13)CN(c1ccc(CS(=O)(=O)NC(=O)Cc3ccccc3OC)cc1C)C2=O [MF-498, N-{[4-(5,9-diethoxy-6-oxo-6,8-dihydro-7H-pyrrolo[3,4-g]quinolin-7-yl)-3-methylbenzyl]sulphonyl}-2-(2-methoxyphenyl)acetamide]
effect of co-administration on roflumilast-mediated loss of body weight (FIG. 9) [3, 7]: substantially reduced
effect of co-administration on roflumilast-mediated loss of spleen weight (FIG. 10) [3, 7]: substantially reduced
effect of co-administration on roflumilast-mediated mesenteric vasculitis (FIG. 12) [3, 7]: substantially reduced
effect of co-administration on roflumilast-mediated neutrophilia (FIG. 11) [3, 7]: substantially reduced
differences in the weight of the spleen between the Roflumilast group and the Roflumilast+MF-498 group (statistics) ([3]; 20 mg/kg p.o. + 10 mg/kg roflumilast p.o., two-way analysis of variance): do not achieve statistical significance
parameters measured after administration on its own (body weight, spleen weight, neutrophils, vasculitis) ([3]; 20 mg/kg p.o. daily, without roflumilast): very similar to the control group

O=C(Nc1c(Cl)cncc1Cl)c1ccc(OC(F)F)c(OCC2CC2)c1 [Roflumilast]
death of animals ([4]; Roflumilast group: 10 mg/kg p.o. daily, six rats per group): one rat from the roflumilast group which died between day 4 and day 5
loss of body weight (FIG. 9) [3, 8]: observed
loss of spleen weight (FIG. 10) [3, 8]: observed
mesenteric vasculitis (monocyte/polymorphonuclear perivascular infiltration into the mesentery, FIG. 12) [3, 8]: observed
neutrophilia (FIG. 11) [3, 8]: observed
loss of body weight (FIG. 5) [2, 8]: observed
loss of spleen weight (FIG. 6) [2, 8]: observed
mesenteric vasculitis (monocyte/polymorphonuclear perivascular infiltration into the mesentery, FIG. 8) [2, 8]: observed
neutrophilia (FIG. 7) [2, 8]: observed
loss of body weight (FIG. 13) [1, 8]: observed
loss of spleen weight (FIG. 14) [1, 8]: observed
mesenteric vasculitis (monocyte/polymorphonuclear perivascular infiltration in the mesentery, FIG. 16) [1, 8]: observed
neutrophilia (FIG. 15) [1, 8]: observed

O=C(O)Cc1ccccc1Nc1c(Cl)cccc1Cl [diclofenac]
effect of co-administration on roflumilast-mediated loss of body weight (FIG. 1) [4, 9]: substantially reduced or prevented
effect of co-administration on roflumilast-mediated loss of spleen weight (FIG. 2) [4, 9]: substantially reduced or prevented
effect of co-administration on roflumilast-mediated mesenteric vasculitis (FIG. 4) [4, 9]: substantially reduced or prevented
effect of co-administration on roflumilast-mediated neutrophilia (FIG. 3) [4, 9]: substantially reduced or prevented
parameters measured after administration on its own (body weight, spleen weight, neutrophils, vasculitis) ([4]; 1 mg/kg p.o. at 0800 and 1700 hours, four days, without roflumilast): very similar to the control groups
